How the values were obtained:
Format in all cases: in vivo
[1] = test system: duck salad (Heteranthera limosa); experiment: Test B flood test
How it was run: (§1)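 Flood test on plants grown to the 2-leaf stage; treated plants kept in greenhouse twelve to sixteen days, then visually rated against controls on a 0 (no effect) to 10 (complete control) scale.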

[2] = test system: bamyardgrass (Echinochloa crus-galli); experiment: Test B flood test
How it was run: as §1

rice (Oryza sativa) = experiment: Test B flood test
How it was run: as §1

[3] = test system: smallflower flatsedge (Cyperus difformis); experiment: Test B flood test
How it was run: as §1

[4] = test system: wheat (Triticum aestivum); experiment: Test B pre-/postemergence; set-up: key: 0 is no effect; 10 is complete control
How it was run: (§2)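 Scored visually 0 (none) to 10 (complete control) against untreated plants after twelve to sixteen greenhouse days. Test chemicals, formulated in surfactant-containing non-phytotoxic solvent, applied to soil after planting and, separately, onto 1- to 4-leaf (2–18 cm) plants.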

[5] = test system: sugar beet (Beta vulgaris); experiment: Test B pre-/postemergence; set-up: key: 0 is no effect; 10 is complete control
How it was run: as §2

wild oat (Avena fatua) = experiment: Test B pre-/postemergence; set-up: key: 0 is no effect; 10 is complete control
How it was run: as §2

rape (Brassica napus) = experiment: Test B pre-/postemergence; set-up: key: 0 is no effect; 10 is complete control
How it was run: as §2

[6] = test system: broadleaf signalgrass (Brachiaria decumbens); experiment: Test B pre-/postemergence; set-up: key: 0 is no effect; 10 is complete control; settings: for B. signalgrass plant response rating: Preemergence
How it was run: as §2

[7] = test system: giant foxtail (Setaria faberii); experiment: Test B pre-/postemergence; set-up: key: 0 is no effect; 10 is complete control
How it was run: as §2

[8] = test system: blackgrass (Alopecurus myosuroides); experiment: Test B pre-/postemergence; set-up: key: 0 is no effect; 10 is complete control; settings: for Blackgrass plant response rating: Preemergence
How it was run: as §2

corn (Zea mays) = experiment: Test B pre-/postemergence; set-up: key: 0 is no effect; 10 is complete control; settings: for Corn plant response rating: Preemergence
How it was run: as §2

soybean (Glycine max) = experiment: Test B pre-/postemergence; set-up: key: 0 is no effect; 10 is complete control
How it was run: as §2

[9] = test system: crabgrass (Digitaria sanguinalis); experiment: Test B pre-/postemergence; set-up: key: 0 is no effect; 10 is complete control; settings: for Crabgrass plant response rating: Preemergence
How it was run: as §2

[10] = test system: pigweed (Amaranthus retroflexus); experiment: Test B pre-/postemergence; set-up: key: 0 is no effect; 10 is complete control
How it was run: as §2

[11] = test system: cocklebur (Xanthium strumarium); experiment: Test B pre-/postemergence; set-up: key: 0 is no effect; 10 is complete control; settings: for Cocklebur plant response rating: Preemergence
How it was run: as §2

[12] = test system: bedstraw (Galium aparine); experiment: Test B pre-/postemergence; set-up: key: 0 is no effect; 10 is complete control; settings: for Bedstraw plant response rating: Preemergence
How it was run: as §2

[13] = test system: purple nutsedge (Cyperus rotundus); experiment: Test B pre-/postemergence; set-up: key: 0 is no effect; 10 is complete control
How it was run: as §2

[14] = test system: momingglory (Ipomoea hederacea); experiment: Test B pre-/postemergence; set-up: key: 0 is no effect; 10 is complete control
How it was run: as §2

[15] = test system: velvetleaf (Abutilon theophrasti); experiment: Test B pre-/postemergence; set-up: key: 0 is no effect; 10 is complete control
How it was run: as §2

[16] = Rate 62 g/ha, Postemergence (flood test)
[17] = Rate 125 g/ha, Postemergence, flood test
[18] = Rate 250 g/ha, Postemergence (flood test species)
[19] = Rate 125 g/ha, Postemergence section (flood test species)
[20] = Rate 250 g/ha, Postemergence (so in the source)

Compound: Cc1cnc(-c2ccc(Cl)cc2F)nc1Cc1cccc(C(F)(F)F)c1 [Compound 29]
- Plant response rating, Ducksalad [1, 16]: 1
- Plant response rating, Ducksalad [1, 17]: 3
- Plant response rating, Ducksalad [1, 18]: 4
- Plant response rating, Barnyardgrass [2, 16]: 2
- Plant response rating, Barnyardgrass [2, 17]: 3
- Plant response rating, Barnyardgrass [2, 18]: 4
- Plant response rating, Rice (rice (Oryza sativa); [16]): 1
- Rice plant response rating (rice (Oryza sativa); [19]): 2
- Plant response rating, Rice (rice (Oryza sativa); [18]): 3
- Plant response rating, S. Flatsedge [3, 16]: 1
- S. Flatsedge plant response rating [3, 19]: 6
- Plant response rating, S. Flatsedge [3, 18]: 8
- Wheat plant response rating ([4]; Rate 62 g/ha, Postemergence): 2
- Wheat plant response rating ([4]; Rate 62 g/ha, Preemergence): 0
- Wheat plant response rating ([4]; Rate 125 g/ha, Postemergence): 3
- Plant response rating, Wheat ([4]; Rate 125 g/ha, Preemergence): 0
- Plant response rating, Wheat ([4]; Rate 250 g/ha, Postemergence): 4
- Plant response rating, Wheat [4, 20]: 0
- Plant response rating, Sugarbeets ([5]; Rate 62 g/ha, Postemergence): 9
- Sugarbeets plant response rating ([5]; Rate 62 g/ha, Preemergence): 0
- Sugarbeets plant response rating ([5]; Rate 125 g/ha, Postemergence): 9
- Plant response rating, Sugarbeets ([5]; Rate 125 g/ha, Preemergence): 3
- Plant response rating, Sugarbeets ([5]; Rate 250 g/ha, Postemergence): 10
- Plant response rating, Sugarbeets [5, 20]: 4
- Wild oats plant response rating (wild oat (Avena fatua); Rate 62 g/ha, Postemergence): 1
- Wild oats plant response rating (wild oat (Avena fatua); Rate 62 g/ha, Preemergence): 0
- Wild oats plant response rating (wild oat (Avena fatua); Rate 125 g/ha, Postemergence): 2
- Plant response rating, Wild oats (wild oat (Avena fatua); Rate 125 g/ha, Preemergence): 0
- Plant response rating, Wild oats (wild oat (Avena fatua); Rate 250 g/ha, Postemergence): 4
- Plant response rating, Wild oats (wild oat (Avena fatua); [20]): 1
- Plant response rating, Rape (rape (Brassica napus); Rate 62 g/ha, Postemergence): 8
- Rape plant response rating (rape (Brassica napus); Rate 62 g/ha, Preemergence): 1
- Rape plant response rating (rape (Brassica napus); Rate 125 g/ha, Postemergence): 9
- Rape plant response rating (rape (Brassica napus); Rate 125 g/ha, Preemergence): 1
- Plant response rating, Rape (rape (Brassica napus); Rate 250 g/ha, Postemergence): 9
- Plant response rating, Rape (rape (Brassica napus); [20]): 1
- Plant response rating, B. signalgrass ([6]; Rate 62 g/ha, Postemergence): 3
- B. signalgrass plant response rating ([6]; Rate 62 g/ha): 1
- Plant response rating, B. signalgrass ([6]; Rate 125 g/ha, Postemergence): 3
- B. signalgrass plant response rating ([6]; Rate 125 g/ha): 3
- Plant response rating, B. signalgrass ([6]; Rate 250 g/ha, Postemergence): 5
- Plant response rating, B. signalgrass ([6]; Rate 250 g/ha, Postemergence as printed in head r139 (second section for compounds 26-50)): 4
- Plant response rating, Giant foxtail ([7]; Rate 62 g/ha, Postemergence): 3
- Giant foxtail plant response rating ([7]; Rate 62 g/ha, Preemergence): 1
- Giant foxtail plant response rating ([7]; Rate 125 g/ha, Postemergence): 4
- Giant foxtail plant response rating ([7]; Rate 125 g/ha, Preemergence): 4
- Plant response rating, Giant foxtail ([7]; Rate 250 g/ha, Postemergence): 4
- Plant response rating, Giant foxtail [7, 20]: 9
- Plant response rating, Blackgrass ([8]; Rate 62 g/ha, Postemergence): 2
- Blackgrass plant response rating ([8]; Rate 62 g/ha): 1
- Plant response rating, Blackgrass ([8]; Rate 125 g/ha, Postemergence): 3
- Blackgrass plant response rating ([8]; Rate 125 g/ha): 1
- Plant response rating, Blackgrass ([8]; Rate 250 g/ha, Postemergence): 5
- Plant response rating, Blackgrass [8, 20]: 3
- Plant response rating, Corn (corn (Zea mays); Rate 62 g/ha, Postemergence): 2
- Corn plant response rating (corn (Zea mays); Rate 62 g/ha): 0
- Plant response rating, Corn (corn (Zea mays); Rate 125 g/ha, Postemergence): 2
- Corn plant response rating (corn (Zea mays); Rate 125 g/ha): 0
- Plant response rating, Corn (corn (Zea mays); Rate 250 g/ha, Postemergence): 3
- Plant response rating, Corn (corn (Zea mays); [20]): 0
- Plant response rating, Soybean (soybean (Glycine max); Rate 62 g/ha, Postemergence): 3
- Soybean plant response rating (soybean (Glycine max); Rate 62 g/ha, Preemergence): 0
- Soybean plant response rating (soybean (Glycine max); Rate 125 g/ha, Postemergence): 4
- Plant response rating, Soybean (soybean (Glycine max); Rate 125 g/ha, Preemergence): 0
- Plant response rating, Soybean (soybean (Glycine max); Rate 250 g/ha, Postemergence): 7
- Plant response rating, Soybean (soybean (Glycine max); [20]): 0
- Plant response rating, Crabgrass ([9]; Rate 62 g/ha, Postemergence): 4
- Crabgrass plant response rating ([9]; Rate 62 g/ha): 2
- Plant response rating, Crabgrass ([9]; Rate 125 g/ha, Postemergence): 6
- Crabgrass plant response rating ([9]; Rate 125 g/ha): 4
- Plant response rating, Crabgrass ([9]; Rate 250 g/ha, Postemergence): 9
- Plant response rating, Crabgrass [9, 20]: 7
- Plant response rating, Redroot pigweed ([10]; Rate 62 g/ha, Postemergence): 8
- Redroot pigweed plant response rating ([10]; Rate 62 g/ha, Preemergence): 0
- Redroot pigweed plant response rating ([10]; Rate 125 g/ha, Postemergence): 10
- Redroot pigweed plant response rating ([10]; Rate 125 g/ha, Preemergence): 3
- Plant response rating, Redroot pigweed ([10]; Rate 250 g/ha, Postemergence): 10
- Plant response rating, Redroot pigweed [10, 20]: 3
- Plant response rating, Cocklebur ([11]; Rate 62 g/ha, Postemergence): 6
- Cocklebur plant response rating ([11]; Rate 62 g/ha): 0
- Plant response rating, Cocklebur ([11]; Rate 125 g/ha, Postemergence): 6
- Cocklebur plant response rating ([11]; Rate 125 g/ha): 0
- Plant response rating, Cocklebur ([11]; Rate 250 g/ha, Postemergence): 8
- Plant response rating, Cocklebur [11, 20]: 0
- Plant response rating, Bedstraw ([12]; Rate 62 g/ha, Postemergence): 2
- Bedstraw plant response rating ([12]; Rate 62 g/ha): 0
- Plant response rating, Bedstraw ([12]; Rate 125 g/ha, Postemergence): 9
- Bedstraw plant response rating ([12]; Rate 125 g/ha): 1
- Plant response rating, Bedstraw ([12]; Rate 250 g/ha, Postemergence): 9
- Plant response rating, Bedstraw [12, 20]: 3
- Plant response rating, Nutsedge ([13]; Rate 62 g/ha, Postemergence): 0
- Nutsedge plant response rating ([13]; Rate 62 g/ha, Preemergence): 0
- Nutsedge plant response rating ([13]; Rate 125 g/ha, Postemergence): 0
- Nutsedge plant response rating ([13]; Rate 125 g/ha, Preemergence): 0
- Plant response rating, Morningglory ([14]; Rate 62 g/ha, Postemergence): 8
- Morningglory plant response rating ([14]; Rate 62 g/ha, Preemergence): 0
- Morningglory plant response rating ([14]; Rate 125 g/ha, Postemergence): 10
- Morningglory plant response rating ([14]; Rate 125 g/ha, Preemergence): 2
- Plant response rating, Morningglory ([14]; Rate 250 g/ha, Postemergence): 10
- Plant response rating, Morningglory [14, 20]: 3
- Plant response rating, Velvetleaf ([15]; Rate 62 g/ha, Postemergence): 3
- Velvetleaf plant response rating ([15]; Rate 62 g/ha, Preemergence): 0
- Velvetleaf plant response rating ([15]; Rate 125 g/ha, Postemergence): 3
- Plant response rating, Velvetleaf ([15]; Rate 125 g/ha, Preemergence): 0
- Plant response rating, Velvetleaf ([15]; Rate 250 g/ha, Postemergence): 4
- Plant response rating, Velvetleaf [15, 20]: 0

— patent US6525001B1, “Substituted pyrimidine and pyridine herbicides” (Mid-American Commercialization Corporation, priority 1997, dated 2003)
